Results reported in patent US5023237A, “Methods and compositions for healing ulcers” (priority 1989, dated 1991).
Entries after “also recorded” stand apart in the source; their conditions may differ. Peptide text beside a SMILES is read from it.

Key:
[1] = test system: Stomach ulcers induced by the Shay procedure; assay: Shay model, stomach ulcer formation and acid secretion (Example 8); assay type: in vivo, rat; conditions: for pH: stomach contents after 24 hours; for % WITH ULCERS: positive if a single lesion is noted; for Ulcer formation and stomach acid secretion, in words: Shay model, compared with saline controls
Procedure: Stomach ulcers were induced in rats by the Shay procedure. Briefly, the passage between the stomach and the intestine in the rat is tied off, thereby causing a buildup of stomach acid. Ulcer formation is visible after 18-24 hours of ligation.
For treatment, the rats received either GHL-Cu or a derivative in 0.25 ml of saline into the stomach via a gastric feeding tube immediately after the surgical procedure. Control rats received saline only. After 24 hours, the rats were sacrificed, the stomachs were removed and photographed. The acidity of the stomach contents was also measured.
In the experiments reported here, the rats were treated with various doses of glycyl-L-histidyl-L-lysine (GHL), GHL-Cu (2:1), or GHL-Cu (1:1) complex of various analogs of GHL as the 1:1 copper complexes.
Stomach ulcers were induced in groups of rats as described above. The animals were dosed with increasing amounts of either GHL:Cu at a molar ration of 2 moles of GHL to 1 mole of Cu (2:1), equimolar complex (1:1), and GHL without copper. After 24 hours, the stomachs were removed, the pH was determined and the percent of stomachs with visible ulcers was determined.
The presence of ulcers is scored positive if a single lesion is noted, regardless of the size.

[2] = test system: Stomach ulcers induced by the Shay procedure (buildup of stomach acid); assay: Shay model, stomach acidity and mucous secretion (Example 7); assay type: in vivo, rat; parameters: key to Mucous Production: 0 represented substantially no mucous observed; ++++ represented a very heavy mucous secretion; conditions: rats, after 24 hours; for Stomach acidity pH ± standard deviation: 10 mg in 0.25 ml saline intubated into the stomach
Procedure: Stomach ulcers were induced in rates by the Shay procedure. Briefly stated, the passage between the stomach and the intestine in the rat is tied off, thereby causing a buildup of stomach acid, resulting in ulceration. For treatment, the rats received 10 mg of GHL or GHL-Cu or a derivative thereof in 0.25 ml saline intubated into the stomach. Control rats received saline only. After 24 hours, the stomachs were photographed and the stomach acidity determined.
The results of the experiments are shown in Table 1, which depicts the inhibition of stomach acid accumulation and stimulation of cytoprotective mucous secretion in the rats. The mucous production was visually rated from 0 to ++++, where 0 represented substantially no mucous observed and ++++ represented a very heavy mucous secretion.

[3] = test system: Duodenal ulcers induced by cysteamine; assay: Healing of cysteamine-induced duodenal ulcers (Example 9); assay type: in vivo, S.D. rats; conditions: for Healing of duodenal ulcers, in words: drinking water treatment, compared to controls
Procedure: Cysteamine will induce chronic duodenal ulcers in rats when injected subcutaneously (Olsen, P. S., Poulsen, S. S., Therkelsen, K., and Nexo, E., Oral administration of synthetic human urogastrone promotes healing of chronic duodenal ulcers in rats, Gastroenterology 90:911-917 (1986)).
Duodenal ulcers were induced in a group of 40 S.D. rats (male and female) by subcutaneous injections of cysteamine (350 mg/kg and 175 mg/kg) 6 hours apart. Saline was injected subcutaneously (5 cc) to provide fluid. Surviving animals (n=34) were followed for 7 days then laparotomies were performed. External examinations of the duodenum were made to determine extent of adhesion of the liver or other surrounding tissues. Animals with duodenal ulcers were randomized (by sex) to receive GHL-Cu (2:1) in distilled water, or plain distilled water. Animals were maintained for 25 days after which they were sedated, stomachs and duodenums removed and dissected for internal inspection. The results were obtained and recorded, specimens immersed in 10% buffered formalin for analysis with a stereomicroscope.
(§1) The following rating scale was used to express severity of ulceration:
(§2) 0--no indication of ulceration
1--mild ulceration, no extension through duodenum
2--moderate ulceration, fixation of surrounding tissue
3--extreme ulceration through duodenum
On the day of laparotomy, 28 rats ([…]) were determined to have significant adhesion of the duodenum to surrounding tissues. These animals were randomized by sex to either the GHL-Cu or control group. Following 25 days of drinking water treatment (total dose per day of 0.6 mg/kg), rats were sedated and prepped for dissection. The stomach and duodenum were removed, notations made as to extent of residual adhesions. Internal inspection of the duodenum was made prior to immersion of specimen in 10% formalin. Results at the time of gross inspection indicated 11 out of 14 control animals had significant residual ulcerations extending to the liver primarily.

[4] = test system: gastric ulcers induced by 95% ethanol; assay: Prevention of ethanol-induced gastric ulcers (Example 10); assay type: in vivo, SD rats; conditions: for Prevention of ethanol-caused gastric irritation and ulceration, in words: pretreatment, 95% ethanol ingestion; for Ulceration after ethanol, in words: stomachs inspected one hour after ethanol
Procedure: (§3) A series of ethanol induced gastric ulcer studies was conducted. Ulcers were induced by oral administration of 95% ethyl alcohol (Scan. J. Gastroenterol 23:665-671 (1988)). The studies were conducted to determine both the preventative and healing effects of glycl-L-histidyl-L-lysine:Cu.
A dose of 2.0 ml/kg 95% ethanol was chosen to induce gastric ulcers in rats. Prior to the ethanol ingestion, three groups of rats were pretreated with 0.5 ml of 2% glycyl-L-histidyl-L-lysine:Cu (1:1) as follows:
Group 1: 2 hours prior to Ethanol dosing
Group 2: 4 hours prior to Ethanol dosing
Group 3: 6 hours prior to Ethanol dosing
In addition, 4 rats served as controls with no pretreatment. One hour following ethanol administration, the stomachs were removed and inspected for ulceration as described above.

[5] = test system: ulcers induced by 95% ethanol; assay: Healing of ethanol-induced gastric ulcers (Example 10); assay type: in vivo, rats; conditions: for Healing of ethanol-induced ulcers, in words: drinking water treatment, compared to controls; for # animals with rating 0 (no indication of ulceration) / # animals with rating 1 (some irritation) / # animals with rating 2 (small ulcers present) / # animals with rating 3 (large ulcers present): day 7
Procedure: as §3
The ability of glycyl-L-histidyl-L-lysine:Cu (2:1) to heal ulcers induced by 95% ethanol has also been examined. In this study, ulcers were induced by administration of 4 ml/kg of 95% ethanol. The rats were then treated with glycyl-L-histidyl-L-lysine:Cu (2:1) in the drinking water at a dose of 0.01 mg/ml and 0.1 mg/ml (total dose per day of 1.6 mg/kg and 16 mg/kg, respectively). The rats were terminated at day 7 after ulcer induction and the stomachs examined for the presence of ulcers.
as §1, §2

[6] = microscopic examination, 25 days drinking water, 0.6 mg/kg per day
[7] = GHL-Cu (2:1) 0.01 mg/ml in drinking water (1.6 mg/kg per day)
[8] = GHL-Cu (2:1) 0.1 mg/ml in drinking water (16 mg/kg per day)

Compound | pH ([1]; dose 10 mg into stomach) [pH] | % WITH ULCERS ([1]; dose 10 mg, after 24 hours) [%] | Stomach acidity pH ± standard deviation [2] [pH] | Healing of duodenal ulcers, in words [3] | Ulcer formation and stomach acid secretion, in words [1] | pH ([1]; dose 3 mg into stomach) [pH] | % WITH ULCERS ([1]; dose 3 mg, after 24 hours) [%] | Prevention of ethanol-caused gastric irritation and ulceration, in words [4] | Healing of ethanol-induced ulcers, in words [5] | also measured
NCCCC[C@H](NC(=O)[C@H](Cc1c[nH]cn1)NC(=O)CN)C(=O)O [GHL, glycyl-L-histidyl-L-lysine] (H-Gly-His-Lys-OH) | 2.84 ± 0.90 | 40 | 3.26 ± 0.47 |  |  |  |  |  |  | 
L-lysyl-L-histidyl-glycine:copper(II) [LGH-Cu] |  |  |  | accelerate the healing of established duodenal ulcers | decreased stomach acid secretion and resulted in fewer visible lesions | 3.61 ± 1.00 | 11 | prevent gastric irritation and ulceration | accelerate the healing of ulcers | 
glycyl-L-histidyl-L-lysine n-octyl ester:copper(II) [GHL octyl ester:Cu] | 6.18 ± 0.98 | 0 |  |  |  | 3.50 ± 1.18 | 25 |  |  | 
glycyl-L-histidyl-L-lysine:Cu (1:1) [GHL-Cu(1:1)] | 7.23 ± 0.64 | 0 |  |  | inhibited ulcer formation and raised the pH of the stomach contents in a dose responsive manner | 4.85 ± 1.17 | 0 |  |  | Lesion formation, in words (photographs, FIG. 1) ([1]; 10 mg, after 24 hours): complete inhibition of lesion formation; pH ([1]; dose 1 mg into stomach): 3.80 ± 1.34 pH; % WITH ULCERS ([1]; dose 1 mg, after 24 hours): 33%; Ulceration after ethanol, in words ([4]; 0.5 ml of 2% solution 2 hours prior to 2.0 ml/kg 95% ethanol): No evidence of ulceration; also recorded: totally blocking damage; Ulceration after ethanol, in words ([4]; 0.5 ml of 2% solution 4 hours prior to 2.0 ml/kg 95% ethanol): Significantly better than controls, however, small ulcers were visible; Ulceration after ethanol, in words ([4]; 0.5 ml of 2% solution 6 hours prior to 2.0 ml/kg 95% ethanol): Mixed results
glycyl-L-histidyl-L-lysine:Cu (2:1) [GHL-Cu(2:1)] | 6.38 ± 1.01 | 11 |  | the severity was reduced | inhibited ulcer formation and raised the pH of the stomach contents in a dose responsive manner | 2.72 ± 1.03 | 50 |  |  | # animals with rating 0 (no indication of ulceration) [3, 6]: 4 animals; # animals with rating 1 (mild ulceration, no extension through duodenum) [3, 6]: 5 animals; # animals with rating 2 (moderate ulceration, fixation of surrounding tissue) [3, 6]: 3 animals; # animals with rating 3 (extreme ulceration through duodenum) [3, 6]: 2 animals
glycyl-L-histidyl-L-lysine:copper(II) [GHL-Cu] |  |  | 6.94 ± 0.25 | accelerate the healing of established duodenal ulcers | decreased stomach acid secretion and resulted in fewer visible lesions |  |  | prevent gastric irritation and ulceration | majority of the animals had no demonstrable ulcers; also recorded: accelerate the healing of ulcers | Animals with residual ulcerations at gross inspection ([3]; GHL-Cu (2:1) in drinking water 25 days, 0.6 mg/kg per day, control 11 out of 14): 7 out of 14; Mucous Production ([2]; 10 mg in 0.25 ml saline, visually rated 0 to ++++): ++++; # animals with rating 0 (no indication of ulceration) [5, 7]: 5 animals; # animals with rating 1 (some irritation) [5, 7]: 2 animals; # animals with rating 2 (small ulcers present) [5, 7]: 0 animals; # animals with rating 3 (large ulcers present) [5, 7]: 0 animals; # animals with rating 0 (no indication of ulceration) [5, 8]: 5 animals; # animals with rating 1 (some irritation) [5, 8]: 1 animals; # animals with rating 2 (small ulcers present) [5, 8]: 1 animals; # animals with rating 3 (large ulcers present) [5, 8]: 0 animals
